ChEMBL document CHEMBL1275373, “Identification by high-throughput screening of inhibitors of Schistosoma mansoni NAD(+) catabolizing enzyme” (Bioorg Med Chem, 2010)
Calls of active or inactive are those of the source. The rule behind the calls is not given here.

Biological target: not listed separately
Assay: Competitive inhibition of Schistosoma mansoni recombinant NAD+ glycohydrolase expressed in Pichia pastoris by Michaelis-Menten equation analysis

Row | Ki [µM] | Structure (SMILES)
1 | 2.1 | Oc1cc(O)c2cc(O)c(-c3ccc(O)c(O)c3)[o+]c2c1 [CYANIDIN]

System: Schistosoma mansoni
Assay: Inhibition of Schistosoma mansoni recombinant NAD+ glycohydrolase expressed in Pichia pastoris at up to 100 uM by continuous fluorometric method

Row | inhibition [%] | Activity | Structure (SMILES)
2 | < 10 |  | O=C1NC(=O)c2cccc3cccc1c23
3 | < 10 |  | O=C(C1CCCCC1)N1CC(=O)N2CCc3ccccc3C2C1 (configuration not stated)
4 | < 10 |  | COc1cc(/C=C/C(=O)CC(=O)/C=C/c2ccc(O)c(OC)c2)ccc1O
5 | < 10 |  | CN(C)CC(=O)Nc1ccc2[nH]c(=O)c3ccccc3c2c1
6 | < 10 |  | Cc1ccc(C(=O)Nc2ccc(S(=O)(=O)O)c3cc(S(=O)(=O)O)cc(S(=O)(=O)O)c23)cc1NC(=O)c1cccc(NC(=O)Nc2cccc(C(=O)Nc3cc(C(=O)Nc4ccc(S(=O)(=O)O)c5cc(S(=O)(=O)O)cc(S(=O)(=O)O)c45)ccc3C)c2)c1
7 |  | inactive | CCN(CC)CCCC(C)Nc1ccnc2cc(Cl)ccc12 (configuration not stated)
8 |  | inactive | OC(c1cc(C(F)(F)F)nc2c(C(F)(F)F)cccc12)C1CCCCN1 (configuration not stated)

System: not listed separately
Assay: Inhibition of Schistosoma mansoni recombinant NAD+ glycohydrolase expressed in Pichia pastoris by continuous fluorometric method

Row | IC50 [µM] | Structure (SMILES)
9 | 6 | Oc1cc(O)c2cc(O)c(-c3cc(O)c(O)c(O)c3)[o+]c2c1 [DELPHINIDIN]
10 | > 100 | Oc1cc(O)cc(/C=C/c2ccc(O)c(O)c2)c1 [PICEATANNOL]
11 | 2.3 | Oc1cc(O)c2cc(O)c(-c3ccc(O)c(O)c3)[o+]c2c1 [CYANIDIN]
12 | 6.1 | Oc1ccc(-c2[o+]c3cc(O)c(O)c(O)c3cc2O)cc1O [QUERCETAGETINIDIN]
13 | 9.9 | COc1ccc(-c2ccc3c(O)cc(O)cc3[o+]2)cc1O [DIOSMETINIDIN]
14 | 1.3 | O=c1c(O)c(-c2ccc(O)c(O)c2)oc2cc(O)c(O)c(O)c12 [QUERCETAGETIN]
15 | 5.8 | O=c1c(O)c(-c2cc(O)c(O)c(O)c2)oc2cc(O)ccc12 [ROBINETIN]
16 | 4.4 | Oc1ccc(-c2[o+]c3cc(O)cc(O)c3cc2O)cc1 [PELARGONIDIN]
17 | 19.5 | O=C1c2c(O)cc(O)cc2OC(c2ccc(O)c(O)c2)C1O (configuration not stated) [TAXIFOLIN]
18 | 6.4 | Oc1ccc2cc(O)c(-c3ccc(O)c(O)c3)[o+]c2c1 [FISETINIDIN]
19 | 5.9 | Oc1cc(O)c2ccc(-c3ccc(O)c(O)c3)[o+]c2c1 [LUTEOLINIDIN]
20 | > 100 | Oc1cc(O)c2c(c1)OC(c1ccc(O)c(O)c1)C(O)C2 (configuration not stated) [CATECHIN]
21 | 8.2 | OC[C@H]1O[C@@H](Oc2cc3c(O)cc(O)cc3[o+]c2-c2ccc(O)c(O)c2)[C@H](O)[C@@H](O)[C@@H]1O [KUROMANIN]
22 | 22 | O=c1c(O)c(-c2cc(O)c(O)c(O)c2)oc2cc(O)cc(O)c12 [MYRICETIN]
23 | 37.8 | COc1cc(-c2[o+]c3cc(O)cc(O)c3cc2O)cc(O)c1O [PETUNIDIN]

More lines, now with the values behind:

Row | Structure (SMILES) | IC50 [µM]
24 | O=c1c(O)c(-c2ccc(O)c(O)c2)oc2cc(O)cc(O)c12 [QUERCETIN] | 3.9
25 | COc1cc(-c2[o+]c3cc(O)cc(O)c3cc2O)cc(OC)c1O [MALVIDIN] | 8
26 | O=c1cc(-c2ccc(O)c(O)c2)oc2cc(O)cc(O)c12 [LUTEOLIN] | 8.4
27 | Oc1ccc(/C=C/c2cc(O)cc(O)c2)cc1 [RESVERATROL] | > 100
